Non-standard residues stand in square brackets, D forms with d. Residues, ends and D or L forms follow the SMILES beside them.

The source of these data is paper PMC6450887, “Metabolic resistance of the D-peptide RD2 developed for direct elimination of amyloid-β oligomers” (Scientific Reports, 2019).

For one series, the system named is cynomolguses. The settings on record: cynomolgus monkey, in vivo, po; cited from earlier work.
The nature of series [1]: Comparison of RD2 metabolite profiles across species: rat liver microsomes. It counts as in vitro ADME. How it is done:
(§1) The preparation of the media was performed as described before in Elfgen et al.[24]. Preparation of simulated gastric and intestinal fluid (SGF & SIF) was done according to the European Pharmacopoeia 7.0. Plasma samples were obtained from human blood of a volunteer donor. Pooled human liver microsomes were purchased from Sekisui XenoTech (Kansas City, USA; H1000, Lot: 0710494 and 1210270; H1500, Lot: 1210079), from Sigma-Aldrich (St. Louis, USA; M0692, Lot: SLBL1433V; M0567, Lot: SLBR2706V and SLBN7300V) and from Gibco, Thermo Fisher Scientific (Waltham, USA; HMMCPL, Lot: PL050; HMMCPM, Lot: PL039). Pooled Sprague Dawley rat liver microsomes were purchased from Sigma-Aldrich (St. Louis, USA; M9066, Lot: SLBN0707V) and from Gibco, Thermo Fisher Scientific (Waltham, USA; RTMCPL, Lot: RT053). Pooled cynomolgus monkey liver microsomes were purchased from Gibco, Thermo Fisher Scientific (Waltham, USA; MKMCPL, Lot: MK062) and from Sekisui XenoTech (Kansas City, USA; P2000, Lot: 1210334). The liver microsomes were diluted in an NADPH regenerating system (NRS).
For the stability tests, 150 µM RD2 or L-RD2 was incubated in SGF, SIF, human plasma and human liver microsomes in triplicate at 37 °C with slight shaking for different time periods. To prevent microbial contaminations in long-term plasma incubations, 0.1% sodium azide was added to the solutions. Microsomal long-term activity was examined by incubating microsomes without peptide for up to 24 h and adding L-RD2 after 8 and 24 h. The ability to degrade L-RD2 served as indicator for their activity. For the comparison of RD2 metabolite profiles across species, 150 µM RD2 was incubated in human, rat and cynomolgus liver microsomes at 37 °C for 2 and 24 h. […]
For the comparison of RD2 metabolite profiles across species (see 2.3), mobile phases were acetonitrile (A) and water (B) each supplemented with 0.1% TFA. […] The amount of the purified HSM-3 was calculated based on a calibration curve of 10 to 100 µM RD2 extracted from human liver microsomes.
A general note: Liver microsomes are a subcellular fraction often used to study metabolism.

Another series deals with CYP2C9 (Homo sapiens, UniProt P11712). In words: CYP isoform inhibition in human liver microsomes (Cyprotex).
Series [2] is described as follows: Stability in human plasma, RP-HPLC. It counts as in vitro ADME. The settings on record: female, 37 °C. How it is done:
as §1
For the stability tests, 150 µM RD2 or L-RD2 was incubated in SGF, SIF, human plasma and human liver microsomes in triplicate at 37 °C with slight shaking for different time periods. To prevent microbial contaminations in long-term plasma incubations, 0.1% sodium azide was added to the solutions. Microsomal long-term activity was examined by incubating microsomes without peptide for up to 24 h and adding L-RD2 after 8 and 24 h. The ability to degrade L-RD2 served as indicator for their activity. For the comparison of RD2 metabolite profiles across species, 150 µM RD2 was incubated in human, rat and cynomolgus liver microsomes at 37 °C for 2 and 24 h. The peptides were extracted by precipitating the proteins with trichloroacetic acid (TCA) and subsequent centrifugation, as described previously in Elfgen et al.[24]. Peptides immediately extracted from the media and precipitated media without peptides served as controls.
For sample analysis from stability tests (see 2.3), mobile phases were acetonitrile (A) and water (B) each supplemented with 0.15% trifluoroacetic acid (TFA) (v/v). The samples were measured isocratically at 10% solvent A for 30 min. This run conditions allowed us to detect smallest chemical changes including the differentiation between the original compound and a deamidated version (Fig. S1). RD2 and L-RD2 can potentially be deamidated at two sites, the C-terminus and the asparagine at position seven. Peak areas of the unmetabolized peptides after different incubation times were normalized to the peptides’ peak areas after direct extraction from the media. […] A chromatographic metabolite profile of L-RD2 in SIF was recorded with the same mobile phases but using a gradient from 0 to 30% solvent A in 30 min.

Chain of CYP2C9 (P11712 whole entry, canonical isoform): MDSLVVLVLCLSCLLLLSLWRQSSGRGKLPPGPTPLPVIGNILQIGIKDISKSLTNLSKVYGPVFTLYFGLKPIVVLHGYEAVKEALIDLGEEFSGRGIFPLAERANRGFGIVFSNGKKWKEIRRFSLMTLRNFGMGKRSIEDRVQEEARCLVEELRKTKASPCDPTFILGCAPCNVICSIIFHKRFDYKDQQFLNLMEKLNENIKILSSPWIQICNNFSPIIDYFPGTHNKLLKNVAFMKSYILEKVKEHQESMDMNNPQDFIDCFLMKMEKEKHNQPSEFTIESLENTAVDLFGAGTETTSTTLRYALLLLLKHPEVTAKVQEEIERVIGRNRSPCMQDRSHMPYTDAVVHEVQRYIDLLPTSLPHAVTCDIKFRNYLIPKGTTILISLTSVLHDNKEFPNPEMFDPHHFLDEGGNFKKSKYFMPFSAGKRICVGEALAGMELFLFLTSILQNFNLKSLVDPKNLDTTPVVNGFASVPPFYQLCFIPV
Experimental for CYP2C9: The experiments were performed by Cyprotex. […] The reactions were terminated by methanol and the generated metabolites were monitored by LC-MS/MS or fluorescence. […] All assays were performed sevenfold. […] For all other substrates, the termination plates were centrifuged at 2,500 rpm and 4 °C for 30 min and aliquots of the supernatants were combined and transferred to fresh 96-well plates. Formic acid in deionized water (final concentration 0.1%) containing internal standard was added to the supernatants prior to cassette analysis by LC-MS/MS. A decrease in the formation of the metabolite compared to the vehicle control was used to calculate the IC50 values.

With `CC(C)C[C@@H](NC(=O)[C@H](NC(=O)[C@H]1CCCN1)[C@H](C)O)C(=O)N[C@H](Cc1c[nH]cn1)C(=O)N[C@@H](C(=O)N[C@H](Cc1c[nH]cn1)C(=O)N[C@H](CC(N)=O)C(=O)N[C@H](CCCNC(=N)N)C(=O)N[C@H](CCCNC(=N)N)C(=O)N[C@H](CCCNC(=N)N)C(=O)N[C@H](CCCNC(=N)N)C(=O)N[C@H](CCCNC(=N)N)C(N)=O)[C@H](C)O` [RD2, ptlhthnrrrrr] (H-[dP][dT][dL][dH][dT][dH][dN][dR][dR][dR][dR][dR]-NH2), in the series with cynomolguses, the “toxic effects of orally administered RD2” value was “does not cause toxic effects up to high doses”. Moreover, the metabolised at 24 h, 150 µM in series [1] (Sprague Dawley, pooled rat liver microsomes, rat samples, 24 h, read-out: decrease of the intensity of the RD2 peak) was 17 ± 4%. For the same compound, the “metabolization of RD2 after 2 h” value in series [1] (rat liver microsomes, 150 µM, 2 h) was “unmetabolized”. At CYP2C9 (concentration range 0 to 25 µM), the “inhibition of CYP2C9” value was “did not inhibit”. Also, at CYP2C9 (human, human liver microsomes), the inhibition at 0.25 µM is 6.15%, the inhibition at 1 µM is -0.871%, the inhibition at 2.5 µM is 0.607% and the inhibition at 10 µM was -7.38%. Moreover, the inhibition at 25 µM on CYP2C9 (human, human liver microsomes) was -26.8%. Also, the metabolised at 480 h, 150 µM in series [2] (150 µM, within 20 days, read-out: peptide degraded) worked out at 87 ± 3%. In series [2] (read-out: half-life (first order kinetics fit) (converted)), the half-life at 150 µM was 216 h.

By inhibition is commonly meant the relative decrease from the control value, in per cent. As usually defined, the half-life is the time in which the quantity being followed falls by half.
